How the values were obtained:
[1] = molecular target: T1, PcrAB (perchlorate reductase) (Azospira oryzae, UniProt G8QM55); assay: steady-state turnover, Cline assay of sulfide; format: biochemical; conditions: H2S as electron donor; 0.2 uM PcrAB; anaerobic
T1 construct: gene Dsui_0149; native PcrAB complex purified anoxically from wild-type PS cells, three-column protocol; periplasmic enzyme; with Perchlorate reductase subunit beta
T1 sequence (G8QM55 29-927): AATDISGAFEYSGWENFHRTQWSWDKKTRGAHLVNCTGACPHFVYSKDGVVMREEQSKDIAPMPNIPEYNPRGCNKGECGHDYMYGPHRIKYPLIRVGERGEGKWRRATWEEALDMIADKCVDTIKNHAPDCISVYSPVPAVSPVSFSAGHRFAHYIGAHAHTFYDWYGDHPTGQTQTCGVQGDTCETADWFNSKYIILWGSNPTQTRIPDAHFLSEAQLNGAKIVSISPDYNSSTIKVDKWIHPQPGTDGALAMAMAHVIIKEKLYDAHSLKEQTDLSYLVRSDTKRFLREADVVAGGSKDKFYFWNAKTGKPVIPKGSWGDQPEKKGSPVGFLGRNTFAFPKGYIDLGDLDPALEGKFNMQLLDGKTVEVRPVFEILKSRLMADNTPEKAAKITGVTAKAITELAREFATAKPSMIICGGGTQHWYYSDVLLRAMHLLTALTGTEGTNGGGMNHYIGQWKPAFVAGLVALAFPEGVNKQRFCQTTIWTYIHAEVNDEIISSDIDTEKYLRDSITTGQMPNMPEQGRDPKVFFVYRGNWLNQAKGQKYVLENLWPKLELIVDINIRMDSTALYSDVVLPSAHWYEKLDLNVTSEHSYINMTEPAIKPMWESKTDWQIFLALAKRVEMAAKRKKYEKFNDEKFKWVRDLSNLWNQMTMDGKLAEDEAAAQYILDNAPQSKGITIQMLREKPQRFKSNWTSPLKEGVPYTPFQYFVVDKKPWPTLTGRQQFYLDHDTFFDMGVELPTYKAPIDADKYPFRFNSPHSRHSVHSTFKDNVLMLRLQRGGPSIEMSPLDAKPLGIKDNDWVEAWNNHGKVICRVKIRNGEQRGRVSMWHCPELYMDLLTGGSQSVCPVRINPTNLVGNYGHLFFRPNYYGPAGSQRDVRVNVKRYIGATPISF
T1 sequence (G8QM54 1-333 partner): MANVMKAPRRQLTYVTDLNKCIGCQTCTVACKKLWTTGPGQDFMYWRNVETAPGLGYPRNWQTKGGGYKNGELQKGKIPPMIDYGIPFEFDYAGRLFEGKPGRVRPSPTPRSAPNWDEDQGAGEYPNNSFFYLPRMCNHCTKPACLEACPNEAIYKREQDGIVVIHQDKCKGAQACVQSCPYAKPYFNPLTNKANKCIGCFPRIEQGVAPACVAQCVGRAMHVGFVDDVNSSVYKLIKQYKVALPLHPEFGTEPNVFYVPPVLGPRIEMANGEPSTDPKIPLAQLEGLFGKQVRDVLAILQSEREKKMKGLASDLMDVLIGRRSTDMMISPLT

[2] = molecular target: T1, PcrAB (perchlorate reductase); assay: steady-state turnover, ion chromatography of perchlorate and Cline assay of sulfide; format: biochemical; conditions: H2S as electron donor; 0.2 uM PcrAB; anaerobic

Compound: O=[N+]([O-])O [nitrate]
- steady-state turnover, Cline assay of sulfide [1]: purified PcrAB also mediated H2S oxidation coupled to nitrate reduction

Compound: [O-][Cl+3]([O-])([O-])O [perchlorate]
- steady-state turnover, ion chromatography of perchlorate and Cline assay of sulf [2]: Our results indicated that PcrAB independently mediated PSOX

Source: article PMC5358917, “Mechanism of H2S Oxidation by the Dissimilatory Perchlorate-Reducing Microorganism Azospira suillum PS” (mBio, 2017)
